Assay results from patent publication US20230114728A1 (Venatorx Pharmaceuticals, Inc., priority 2019, published 2023).
Converted amounts (≈) assume the structure as drawn.

Legend:
E. coli K12 PBP3 = biological target: T1, E. coli K12 PBP3 (Escherichia coli, UniProt P0AD68); experiment: biochemical; type: binding
T1 construct: made in house
Method in brief: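 A. baumannii PBP2 (2.5 μM) and PBP3 (0.2 μM) were run in 25 mM Tris pH 8.0 buffer with Tween 20; E. coli PBP3 (1.5 μM) and N. gonorrhoeae PBP2 ([…]) in 50 mM Hepes pH 8.0 buffer.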

[1] = test system: N. gonorrhoeae ATCC 49226; experiment: Liquid broth MIC in Fastidious broth; type: cell-based; conditions: Neisseria gonorrhoeae, ATCC49226; N. gonorrhoeae strain ATCC 49226; Fastidious broth; read-out: Minimum Inhibitory Concentration, N. gonorrhoeae ATCC 49226
Method in brief: (§1)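 Colonies were swabbed from chocolate agar after 24 h growth and standardised by optical density at 600 nm. Compounds were serially diluted twofold in Fastidious broth, and bacteria added to give 5×10^5 CFU/mL. After about 24 h at 36 °C in 5% CO2, the lowest concentration allowing under 10% growth was taken as MIC.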

N. gonorrhoeae WHO Z = experiment: Liquid broth MIC in Fastidious broth; type: cell-based; conditions: Neisseria gonorrhoeae, read-out: Minimum Inhibitory Concentration, N. gonorrhoeae WHO Z
Method in brief: (§2)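 Mosaic PBP2 producers; colonies from 24 h chocolate agar, saline suspension, OD600. Fastidious broth, 2-fold dilutions, 5×10^5 CFU/mL. ~24 h, 36 °C, 5% CO2; visual MIC, <10% growth cutoff.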

N. gonorrhoeae H041 = experiment: Liquid broth MIC in Fastidious broth; type: cell-based; conditions: Neisseria gonorrhoeae, H041, read-out: Minimum Inhibitory Concentration, N. gonorrhoeae H041
Method in brief: as §2

N. gonorrhoeae WHO K = experiment: Liquid broth MIC in Fastidious broth; type: cell-based; conditions: Neisseria gonorrhoeae, read-out: Minimum Inhibitory Concentration, N. gonorrhoeae WHO K
Method in brief: as §2

N. gonorrhoeae WHO Q = experiment: Liquid broth MIC in Fastidious broth; type: cell-based; conditions: Neisseria gonorrhoeae, read-out: Minimum Inhibitory Concentration, N. gonorrhoeae WHO Q
Method in brief: as §2

N. gonorrhoeae FA1090 = experiment: Liquid broth MIC in Fastidious broth; type: cell-based; conditions: Neisseria gonorrhoeae; N. gonorrhoeae strain FA1090; Fastidious broth; read-out: Minimum Inhibitory Concentration, N. gonorrhoeae FA1090
Method in brief: as §1

N. gonorrhoeae WHO L = experiment: Liquid broth MIC in Fastidious broth; type: cell-based; conditions: Neisseria gonorrhoeae; N. gonorrhoeae strain WHO L; Fastidious broth; read-out: Minimum Inhibitory Concentration, N. gonorrhoeae WHO L
Method in brief: as §1

N. gonorrhoeae WHO G = experiment: Liquid broth MIC in Fastidious broth; type: cell-based; conditions: Neisseria gonorrhoeae; N. gonorrhoeae strain WHO G; Fastidious broth; read-out: Minimum Inhibitory Concentration, N. gonorrhoeae WHO G
Method in brief: as §1

T1 sequence (P0AD68 1-577): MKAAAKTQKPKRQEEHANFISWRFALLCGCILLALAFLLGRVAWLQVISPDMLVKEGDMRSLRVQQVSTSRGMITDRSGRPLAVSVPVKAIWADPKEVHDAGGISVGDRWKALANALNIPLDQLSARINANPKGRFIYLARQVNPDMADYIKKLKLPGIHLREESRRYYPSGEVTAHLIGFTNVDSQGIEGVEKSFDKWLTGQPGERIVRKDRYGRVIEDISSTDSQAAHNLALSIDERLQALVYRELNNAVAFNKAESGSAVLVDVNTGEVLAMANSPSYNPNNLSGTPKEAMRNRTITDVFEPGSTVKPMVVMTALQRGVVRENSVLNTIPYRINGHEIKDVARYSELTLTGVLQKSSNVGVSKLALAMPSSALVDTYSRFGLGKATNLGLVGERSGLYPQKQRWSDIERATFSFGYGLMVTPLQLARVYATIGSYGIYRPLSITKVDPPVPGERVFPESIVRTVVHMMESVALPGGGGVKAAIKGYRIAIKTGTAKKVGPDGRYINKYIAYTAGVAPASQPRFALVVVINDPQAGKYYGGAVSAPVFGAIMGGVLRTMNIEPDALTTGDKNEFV

Structure (SMILES) | EC50 (E. coli K12 PBP3) [µM] | MIC [1] [µg/mL] | MIC (N. gonorrhoeae WHO Z) [µg/mL] | MIC (N. gonorrhoeae H041) [µg/mL] | MIC (N. gonorrhoeae WHO K) [µg/mL] | MIC (N. gonorrhoeae WHO Q) [µg/mL] | MIC (N. gonorrhoeae FA1090) [µg/mL] | MIC (N. gonorrhoeae WHO L) [µg/mL] | MIC (N. gonorrhoeae WHO G) [µg/mL]
NCCN1CCN(C(=O)NC(C(=O)N[C@H]2Cc3cccc(C(=O)O)c3OB2O)c2c(F)c(F)c(O)c(F)c2F)C(=O)C1=O (stereo partly drawn) [Example 174, (3R)-3-(2-(4-(2-aminoethyl)-2,3-dioxopiperazine-1-carboxamido)-2-(2,3,5,6-tetrafluoro-4-hydroxyphenyl)acetamido)-2-hydroxy-3,4-dihydro-2H-benzo[e][1,2]oxaborinine-8-carboxylic acid] | < 30 | 4 to 8 (≈ 6.54 to 13.1 µM) | 16 to 32 (≈ 26.2 to 52.4 µM) | > 64 | > 64 | 16 to 32 (≈ 26.2 to 52.4 µM) | 0.25 to 0.5 (≈ 0.409 to 0.818 µM) | 16 to 32 (≈ 26.2 to 52.4 µM) | 1 to 2 (≈ 1.64 to 3.27 µM)
CCN1CCN(C(=O)NC(C(=O)N[C@H]2Cc3cccc(C(=O)O)c3OB2O)c2c(Cl)cc(C(=O)O)cc2Cl)C(=O)C1=O (stereo partly drawn) [Example 150, (3R)-3-(2-(4-carboxy-2,6-dichlorophenyl)-2-(4-ethyl-2,3-dioxopiperazine-1-carboxamido)acetamido)-2-hydroxy-3,4-dihydro-2H-benzo[e][1,2]oxaborinine-8-carboxylic acid] | 30 to 500 | > 64 | > 64 | > 64 | > 64 | > 64 | 4 to 8 (≈ 6.44 to 12.9 µM) | > 64 | 16 to 32 (≈ 25.8 to 51.5 µM)
O=C(O)c1cccc2c1OB(O)[C@@H](NC(=O)C(NC(=O)N1CCN(CCF)C(=O)C1=O)c1c(F)cc(O)cc1F)C2 (mixture of isomers) [Example 119, (3R)-3-(2-(2,6-difluoro-4-hydroxyphenyl)-2-(4-(2-fluoroethyl)-2,3-dioxopiperazine-1-carboxamido)acetamido)-2-hydroxy-3,4-dihydro-2H-benzo[e][1,2]oxaborinine-8-carboxylic acid] | < 30 | 16 to 32 (≈ 27.7 to 55.3 µM) | 4 to 8 (≈ 6.92 to 13.8 µM) | > 64 | 16 to 32 (≈ 27.7 to 55.3 µM) | 16 to 32 (≈ 27.7 to 55.3 µM) | 0.25 to 0.5 (≈ 0.432 to 0.865 µM) | 16 to 32 (≈ 27.7 to 55.3 µM) | 1 to 2 (≈ 1.73 to 3.46 µM)
